Assay results taken from ChEMBL document CHEMBL5543127, “Design, Synthesis, and Biological Evaluation of 2-Phenoxyalkylhydrazide Benzoxazole Derivatives as Quorum Sensing Inhibitors with Strong Antibiofilm Effect” (J Med Chem, 2024).
In brackets after ≈: the same amount, converted by molar mass. Activity calls are given as the source filed them. The rule behind the calls is not given here.

Assays:
Bacillus subtilis = test: Anti-microbial activity against Bacillus subtilis ATCC9372 incubated for 20 hrs By CLSI based micro-dilution method; assay type: functional
Bacillus pumilus = test: Anti-microbial activity against Bacillus pumilus CMCC63202 incubated for 20 hrs By CLSI based micro-dilution method; assay type: functional
Staphylococcus aureus [1] = test: Anti-microbial activity against erythromycin-susceptible Staphylococcus aureus ATCC25923 incubated for 20 hrs By CLSI based micro-dilution method; assay type: functional
Staphylococcus aureus [2] = test: Anti-microbial activity against methicillin-resistant Staphylococcus aureus ATCC43300 incubated for 20 hrs By CLSI based micro-dilution method; assay type: functional
Pseudomonas aeruginosa [3] = test: Anti-microbial activity against penicillin-susceptible Pseudomonas aeruginosa 27853 incubated for 20 hrs By CLSI based micro-dilution method; assay type: functional
Escherichia coli = test: Anti-microbial activity against penicillin-susceptible Escherichia coli ATCC25922 incubated for 20 hrs By CLSI based micro-dilution method; assay type: functional
Pseudomonas aeruginosa [4] = test: Anti-microbial activity against Pseudomonas aeruginosa PAO1 incubated for 20 hrs By CLSI based micro-dilution method; assay type: functional
[5] = Inhibition of quorum sensing system in Pseudomonas aeruginosa PAO1 at logarithmic growth period assessed as inhibition of pyocyanin production at 102.4 microg/ml incubated for 18 hrs by pyocyanin inhibition assay; conditions: dose 102.4 µg/ml
Pseudomonas aeruginosa [6] = test: Inhibition of protease in logarithmic growth phase Pseudomonas aeruginosa PAO1 assessed as inhibition rate at 102.4 microg/ml measured after 32 hrs; conditions: dose 102.4 µg/ml
Pseudomonas aeruginosa [7] = test: Anti-virulence activity against logarithmic growth phase Pseudomonas aeruginosa PAO1 assessed as inhibition of Rhamnolipid production at 102.4 microg/ml measured after 24 hrs; assay type: functional
Pseudomonas aeruginosa [8] = test: Antibiofilm activity against logarithmic growth phase Pseudomonas aeruginosa PAO1 assessed as inhibition of biofilm formation at 16 microg/ml incubated for 20 hrs by crystal violet staining based analysis; assay type: functional; conditions: for inhibition: dose 16.0 µg/ml
Pseudomonas aeruginosa [9] = test: Antibiofilm activity against logarithmic growth phase Pseudomonas aeruginosa PAO1 assessed as inhibition of biofilm formation at 32 microg/ml incubated for 20 hrs by crystal violet staining based analysis; assay type: functional
Pseudomonas aeruginosa [10] = test: Induction of anti-bacterial effect in Pseudomonas aeruginosa PAO1 assessed as synergistic effect by measuring reduction in bacterial survival in presence of ciprofloxacin measured after 24 hrs incubation; assay type: functional, organism-based; conditions: dose 8-128 µg/ml
Pseudomonas aeruginosa [11] = test: Induction of anti-bacterial effect in Pseudomonas aeruginosa PAO1 assessed as synergistic effect by measuring reduction in bacterial survival in presence of clarithromycin measured after 24 hrs incubation; assay type: functional, organism-based; conditions: dose 8-128 µg/ml
Pseudomonas aeruginosa [12] = test: Induction of anti-bacterial effect in Pseudomonas aeruginosa PAO1 assessed as synergistic effect by measuring reduction in bacterial survival in presence of ciprofloxacin at 128 microg/ml measured after 24 hrs incubation relative to control; assay type: functional; conditions: dose 128 µg/ml
Pseudomonas aeruginosa [13] = test: Induction of anti-bacterial effect in Pseudomonas aeruginosa PAO1 assessed as synergistic effect by measuring reduction in bacterial survival in presence of ciprofloxacin at 16 to 128 microg/ml measured after 24 hrs incubation; assay type: functional, organism-based; conditions: dose 16-128 µg/ml
Pseudomonas aeruginosa [14] = test: Induction of anti-bacterial effect in Pseudomonas aeruginosa PAO1 assessed as synergistic effect by measuring reduction in bacterial survival in presence of clarithromycin at 16 to 128 microg/ml measured after 24 hrs incubation; assay type: functional, organism-based; conditions: dose 16-128 µg/ml
Erythrocyte = test: Hemolytic activity in mouse RBC isolated from eye ball assessed as hemolysis at 256 microg/ml incubated for 1 hr; assay type: toxicity, cell-based; conditions: dose 256 µg/ml
Pseudomonas aeruginosa [15] = test: Anti-bacterial effect in Pseudomonas aeruginosa PAO1 assessed as reduction in bacterial survival by measuring inhibition rate at 0.4 microg/ml measured after 24 hrs incubation relative to control; assay type: functional
Pseudomonas aeruginosa [16] = test: Antibacterial activity against Pseudomonas aeruginosa PAO1 at logarithmic growth phase assessed as growth inhibition at 153.6 microg/ml measured upto 25 hrs by growth curve assay; assay type: functional, organism-based; conditions: dose 153.6 µg/ml
Pseudomonas aeruginosa [17] = test: Antibacterial activity against Pseudomonas aeruginosa 27853 at logarithmic growth phase assessed as growth inhibition at 153.6 microg/ml measured upto 25 hrs by growth curve assay; assay type: functional, organism-based; conditions: dose 153.6 µg/ml
Pseudomonas aeruginosa [18] = test: Induction of morphological changes in biofilm of Pseudomonas aeruginosa PAO1 assessed as biofilm damage at 102.4 microg/ml measured after 24 hrs by scanning electron microscopy; assay type: functional, organism-based; conditions: dose 102.4 µg/ml
Pseudomonas aeruginosa [19] = test: Induction of cell wall rupture in Pseudomonas aeruginosa PAO1 at 102.4 microg/ml measured after 24 hrs by scanning electron microscopy; assay type: functional, organism-based; conditions: dose 102.4 µg/ml
Pseudomonas aeruginosa [20] = test: Induction of cell morphological change in Pseudomonas aeruginosa PAO1 at 102.4 microg/ml measured after 24 hrs by scanning electron microscopy; assay type: functional, organism-based; conditions: dose 102.4 µg/ml
Pseudomonas aeruginosa [21] = test: Inhibition of swarming movement of Pseudomonas aeruginosa PAO1 assessed as movement state of bacterial clusters after 24 hrs by swarming motility assay; assay type: functional, organism-based; conditions: dose 25.6-102.4 µg/ml
Pseudomonas aeruginosa [22] = test: In vivo anti-bacterial effect in Pseudomonas aeruginosa PAO1 infected in Kunming mouse assessed as reduction in bacterial survival at 25 mg/kg, ip measured after 1 hr incubation; assay type: functional, organism-based
Pseudomonas aeruginosa [23] = test: In vivo induction of anti-bacterial effect in Pseudomonas aeruginosa PAO1 infected in Kunming mouse assessed as synergistic effect by measuring reduction in bacterial survival in presence of 15 mg/kg ciprofloxacin at 25 mg/kg, ip measured after 1 hr incubation; assay type: functional, organism-based
Pseudomonas aeruginosa [24] = test: In vivo induction of anti-bacterial effect in Pseudomonas aeruginosa PAO1 infected in Kunming mouse assessed as synergistic effect by measuring reduction in bacterial survival in presence of 15 mg/kg ciprofloxacin at 5 mg/kg, ip measured after 1 hr incubation relative to ciprofloxacin alone; assay type: functional, organism-based
[25] = Inhibition of quorum sensing system in Pseudomonas aeruginosa PAO1-lasB-gfp assessed as reduction in fluorescence intensity measured upto 12 hrs by GFP reporter strain assay; conditions: dose 32-128 µg/ml
[26] = Inhibition of quorum sensing system in Pseudomonas aeruginosa PAO1-pqsA-gfp assessed as reduction in fluorescence intensity measured upto 12 hrs by GFP reporter strain assay; conditions: dose 32-128 µg/ml
[27] = Inhibition of quorum sensing system in Pseudomonas aeruginosa PAO1- rhlA-gfp assessed as reduction in fluorescence intensity measured upto 12 hrs by GFP reporter strain assay; conditions: dose 32-128 µg/ml
[28] = Inhibition of quorum sensing system in Pseudomonas aeruginosa PAO1-gfp assessed as reduction in fluorescence intensity at 32 to 128 microg/ml measured upto 12 hrs by GFP reporter strain assay; conditions: dose 32-128 µg/ml

Compound | MIC (Bacillus subtilis) | MIC (Bacillus pumilus) | MIC (Staphylococcus aureus [1]) | MIC (Staphylococcus aureus [2]) | MIC (Pseudomonas aeruginosa [3]) | MIC (Escherichia coli) | MIC (Pseudomonas aeruginosa [4]) | inhibition [5] | inhibition (Pseudomonas aeruginosa [6]) | inhibition (Pseudomonas aeruginosa [8]) | inhibition at 32 µg/mL (Pseudomonas aeruginosa [9]) | Activity (Pseudomonas aeruginosa [10]) | Activity (Pseudomonas aeruginosa [11]) | Activity (Pseudomonas aeruginosa [12]) | Activity (Pseudomonas aeruginosa [13]) | Activity (Pseudomonas aeruginosa [14]) | Activity (Erythrocyte) | Activity (Pseudomonas aeruginosa [16]) | Activity (Pseudomonas aeruginosa [17]) | Activity (Pseudomonas aeruginosa [18]) | also measured
O=C(CCCCOc1cccc(F)c1)NNc1nc2ccccc2o1 | > 512 µg/mL | > 512 µg/mL | 512 µg/mL (≈ 1490 µM) | > 512 µg/mL | 512 µg/mL (≈ 1490 µM) | > 512 µg/mL | > 512 µg/mL | Active | inactive | Active | > 25.4% | Dose-Dependent Effect | Dose-Dependent Effect | >90% | Active | Active | Non-Toxic | – | – | – | inhibition at 102.4 µg/mL (Pseudomonas aeruginosa [7]): 52.1%
O=C(O)c1cn(C2CC2)c2cc(N3CCNCC3)c(F)cc2c1=O [CIPROFLOXACIN] | – | – | – | – | – | – | – | – | – | – | – | – | – | – | – | – | – | – | – | – | inhibition at 0.4 µg/mL (Pseudomonas aeruginosa [15]): 42%
CCCCCCCCCCC(=O)N/N=c1\sc2ccccc2n1C | > 512 µg/mL | > 512 µg/mL | > 512 µg/mL | > 512 µg/mL | > 512 µg/mL | > 512 µg/mL | > 512 µg/mL | – | > 20% | Active | > 25.4% | Dose-Dependent Effect | Dose-Dependent Effect | >90% | Active | Active | Non-Toxic | inactive | inactive | – | –
O=C(CCCCOc1ccc(F)cc1)NNc1nc2ccccc2o1 | > 512 µg/mL | > 512 µg/mL | > 512 µg/mL | > 512 µg/mL | 512 µg/mL (≈ 1490 µM) | > 512 µg/mL | > 512 µg/mL | 53.6% | inactive | Active | > 25.4% | Dose-Dependent Effect | Dose-Dependent Effect | >90% | Active | Active | Non-Toxic | – | – | – | –
CC[C@H]1OC(=O)[C@H](C)[C@@H](O[C@H]2C[C@@](C)(OC)[C@@H](O)[C@H](C)O2)[C@H](C)[C@@H](O[C@@H]2O[C@H](C)C[C@H](N(C)C)[C@H]2O)[C@](C)(O)C[C@@H](C)CN(C)[C@H](C)[C@@H](O)[C@]1(C)O [AZITHROMYCIN] | 0.25 µg/mL (≈ 0.334 µM) | 0.25 µg/mL (≈ 0.334 µM) | 0.25 µg/mL (≈ 0.334 µM) | 256 µg/mL (≈ 342 µM) | 16 µg/mL (≈ 21.4 µM) | 128 µg/mL (≈ 171 µM) | 256 µg/mL (≈ 342 µM) | – | – | – | – | – | – | – | – | – | – | – | – | Active | –
O=C(COc1ccc(F)cc1)NNc1nc2ccccc2o1 | 512 µg/mL (≈ 1700 µM) | > 512 µg/mL | > 512 µg/mL | > 512 µg/mL | 512 µg/mL (≈ 1700 µM) | > 512 µg/mL | 512 µg/mL (≈ 1700 µM) | 43.6% | 10% | – | > 76.6% | Dose-Dependent Effect | Dose-Dependent Effect | >90% | Active | Active | Non-Toxic | inactive | inactive | Active | inhibition at 16 µg/mL (Pseudomonas aeruginosa [8]): > 50%; Activity (Pseudomonas aeruginosa [19]): inactive; Activity (Pseudomonas aeruginosa [20]): inactive; inhibition (Pseudomonas aeruginosa [21]): Dose-Dependent Effect; Activity (Pseudomonas aeruginosa [22]): inactive; Activity (Pseudomonas aeruginosa [23]): Active; Activity (Pseudomonas aeruginosa [24]): Active; inhibition [25]: Dose-Dependent Effect; inhibition [26]: Dose-Dependent Effect; inhibition [27]: Dose-Dependent Effect; inhibition [28]: Dose-Dependent Effect
